Results on 11 compounds are retold here after ChEMBL document CHEMBL4346704, “Novel symmetric bis-benzimidazoles: Synthesis, DNA/RNA binding and antitrypanosomal activity” (Eur J Med Chem, 2019).

By ΔTm is commonly meant the change in melting temperature against a reference sample. What is called IC50 is the concentration that gives 50% inhibition. The IC90 is the concentration needed for an effect of 90%.

Calls of active or inactive are those of the source. The calls are words filed in the database; no cut-off is given here.

Assay [1] has as its system Calf thymus DNA. The assay can be described thus: Binding affinity to calf thymus DNA assessed as hypochromic effect by UV-vis spectrophotometric method relative to control. To be noted: Bos taurus. The arrangement: concentration or dose not given beside the values. It counts as nucleic-acid assay.
Assay [2] can be described thus: Binding affinity to polyA-polyU dsRNA (unknown origin) assessed as hypochromic effect by UV-vis spectrophotometric method relative to control. It counts as nucleic-acid assay. Set-up: concentration or dose not given beside the values.
Assay [3] relates to Calf thymus DNA. The assay can be described thus: Binding affinity to calf thymus DNA assessed as change in melting temperature at compound to calf thymus DNA polynucleotide ratio of 0.3 by spectrophotometric analysis. It counts as nucleic-acid assay. The settings on record: Bos taurus.
In assay [4] the test system is Poly(dA-dU)oligonucleotide. The assay can be described thus: Binding affinity to polyA-polyU dsRNA (unknown origin) assessed as change in melting temperature at 0.3 ratio of compound to RNA by spectrophotometric analysis. It counts as nucleic-acid assay.
Assay [5] deals with Poly(dA-dU)oligonucleotide. The assay can be described thus: Binding affinity to polyA-polyU dsRNA (unknown origin) assessed as conformational change by circular dichroism analysis. The class given is nucleic-acid assay. For orientation: Circular dichroism is widely used to follow secondary structure.
The subject of a further assay is Trypanosoma brucei. The assay can be described thus: Antitrypanosomal activity against Trypanosoma brucei 221 incubated for 48 hrs by resazurin based fluorescence assay. It counts as functional, organism-based. To be noted: Trypanosoma brucei, 221, 48 h.
The subject of assay [6] is Calf thymus DNA. The assay can be described thus: Binding affinity to calf thymus DNA assessed as conformational change by circular dichroism analysis. It counts as nucleic-acid assay. To be noted: Bos taurus.
Assay [7] concerns Calf thymus DNA. The assay can be described thus: Binding affinity to calf thymus DNA by UV-vis spectrophotometric method. It counts as nucleic-acid assay. To be noted: Bos taurus.
Assay [8] in a line: (§1) Binding affinity to polyA-polyU dsRNA (unknown origin) assessed as binding constant by UV-vis spectrophotometric method. It counts as nucleic-acid assay.
For assay [9], the system named is Calf thymus DNA. The assay can be described thus: Binding affinity to calf thymus DNA assessed as change in melting temperature at compound to calf thymus DNA polynucleotide ratio of 0.1 by spectrophotometric analysis. It counts as nucleic-acid assay. To be noted: Bos taurus.
Assay [10] has as its system Calf thymus DNA. The assay can be described thus: Binding affinity to calf thymus DNA assessed as change in melting temperature at compound to calf thymus DNA polynucleotide ratio of 0.5 by spectrophotometric analysis. The class given is nucleic-acid assay. The settings on record: Bos taurus.
The nature of assay [11]: Binding affinity to polyA-polyU dsRNA (unknown origin) assessed as change in melting temperature at 0.1 ratio of compound to RNA by spectrophotometric analysis. It counts as nucleic-acid assay.
In assay [12] the test system is Poly(dA-dU)oligonucleotide. The assay can be described thus: Binding affinity to polyA-polyU dsRNA (unknown origin) assessed as change in melting temperature at 0.5 ratio of compound to RNA by spectrophotometric analysis. The class given is nucleic-acid assay.
A further assay deals with L6. The assay can be described thus: Cytotoxicity against rat L6 cells incubated for 6 days by resazurin based fluorescence assay. The settings on record: L6, 144 h. It counts as cell-based. (In general: Resazurin is reduced to fluorescent resorufin, in cell work by metabolically active cells.)
In assay [13] the test system is Calf thymus DNA. The assay can be described thus: Ratio of compound concentration to polynucleotide phosphate concentration for binding affinity to calf thymus DNA. It counts as nucleic-acid assay. To be noted: Bos taurus.
In assay [14] the test system is Poly(dA-dU)oligonucleotide. The description is as §1. The class given is nucleic-acid assay.
The nature of assay [15]: Ratio of compound concentration to polynucleotide phosphate concentration for binding affinity to polyA-polyU dsRNA (unknown origin). The class given is nucleic-acid assay.

As to `CC(C)NC(=N)c1ccc2[nH]c(-c3ccc(Cn4cc(COc5ccc(-c6ccc(OCc7cn(Cc8ccc(-c9nc%10cc(C(=N)NC(C)C)ccc%10[nH]9)o8)nn7)cc6)cc5)nn4)o3)nc2c1`, the Activity with Calf thymus DNA [1] was 8%; in assay [2] it was less than 5%. For the same compound, the ΔTm is 2.1 °C with Calf thymus DNA [3] and 0 °C in assay [4]. For the same compound, the outcome (in assay [5]; in the assay with Calf thymus DNA [6]) was Active. The IC50 with Trypanosoma brucei was more than 10 µM.
Take `CC(C)NC(=N)c1ccc2[nH]c(-c3ccc(Cn4cc(COc5ccc(OCc6cn(Cc7ccc(-c8nc9cc(C(=N)NC(C)C)ccc9[nH]8)o7)nn6)cc5)nn4)o3)nc2c1.Cl.Cl`: the Activity in the assay with Calf thymus DNA [1] worked out at 23%; in assay [2], 11%. For the same compound, the outcome (in the assay on Calf thymus DNA [7]; in assay [8]; in assay [5]; with Calf thymus DNA [6]) was Active. For the same compound, the ΔTm with Calf thymus DNA [9] worked out at 8 °C; in the assay on Calf thymus DNA [3], 11 °C; in the assay with Calf thymus DNA [10], 12.2 °C; in [11], 0 °C; in assay [4], 0 °C; in assay [12] it was 0 °C. Also, the IC50 was determined as 1.5 µM in the assay with Trypanosoma brucei and 121 µM with L6. The compound further displayed an IC90 with Trypanosoma brucei of 2.8 µM.
As for `c1cc(-c2ccc(OCc3cn(Cc4ccc(-c5nc6cc(C7=NCCN7)ccc6[nH]5)o4)nn3)cc2)ccc1OCc1cn(Cc2ccc(-c3nc4cc(C5=NCCN5)ccc4[nH]3)o2)nn1`, the Activity amounted to 9% with Calf thymus DNA [1] and 8% in [2]. Besides, the ΔTm in the assay on Calf thymus DNA [3] came out at 2.6 °C; in assay [4], 0 °C. The result (in [5]; in the assay with Calf thymus DNA [6]) was Active. The compound further had an IC50 in the assay with Trypanosoma brucei of more than 10 µM.
As to `Cl.Cl.c1cc(OCc2cn(Cc3ccc(-c4nc5cc(C6=NCCN6)ccc5[nH]4)o3)nn2)ccc1OCc1cn(Cc2ccc(-c3nc4cc(C5=NCCN5)ccc4[nH]3)o2)nn1`, the values for the Activity (with Calf thymus DNA [1]; in assay [2]) were 6% and 11%, respectively. In addition, the result (in the assay on Calf thymus DNA [7]; in assay [8]; in [5]; with Calf thymus DNA [6]) was Active. The ΔTm is 8.2 °C with Calf thymus DNA [9]; 8.9 °C with Calf thymus DNA [3]; 0 °C in the assay on Calf thymus DNA [10]; 2.7 °C in [11]; 2.2 °C in assay [4]; 0 °C in assay [12]. In addition, the IC50 with Trypanosoma brucei came out at 0.75 µM; with L6, 60.7 µM. The same compound showed an IC90 with Trypanosoma brucei of 1.5 µM.
As to `Fc1ccc2[nH]c(-c3ccc(Cn4cc(COc5ccc(-c6ccc(OCc7cn(Cc8ccc(-c9nc%10cc(F)ccc%10[nH]9)o8)nn7)cc6)cc5)nn4)o3)nc2c1`, the Activity with Calf thymus DNA [1] amounted to 16%; in [2], 23%. The log Ks in the assay on Calf thymus DNA [7] is 4 to 5. For the same compound, the result in assay [8] was Active. The Ratio in the assay with Calf thymus DNA [13] stood at 0.21. The ΔTm (with Calf thymus DNA [3]; in [4]) was 0 °C in each case. For the same compound, in the assay with Trypanosoma brucei, the IC50 was more than 15 µM. Further, the result in the assay with Calf thymus DNA [6] was inactive.
As for `Cl.Cl.N=C(N)c1ccc2[nH]c(-c3ccc(Cn4cc(COc5ccc(OCc6cn(Cc7ccc(-c8nc9cc(C(=N)N)ccc9[nH]8)o7)nn6)cc5)nn4)o3)nc2c1`, the Activity in the assay with Calf thymus DNA [1] came out at 9%; in [2], 7%. Also, the result (in the assay on Calf thymus DNA [7]; in assay [8]; in assay [5]; in the assay with Calf thymus DNA [6]) was Active. Further, the ΔTm turned out to be 9.5 °C in the assay on Calf thymus DNA [9]; 10.7 °C in the assay on Calf thymus DNA [3]; 12.3 °C with Calf thymus DNA [10]; 0 °C in assay [11]; 0 °C in assay [4]; 0 °C in assay [12]. For the same compound, the IC50 was 1.3 µM in the assay on Trypanosoma brucei and 39.6 µM with L6. In the assay with Trypanosoma brucei, this compound displayed an IC90 of 5.6 µM.
As to `CC(C)NC(=N)c1ccc2[nH]c(-c3ccc(Cn4cc(CCCc5cn(Cc6ccc(-c7nc8cc(C(=N)NC(C)C)ccc8[nH]7)o6)nn5)nn4)o3)nc2c1.Cl.Cl`, the Activity with Calf thymus DNA [1] was found to be 24%; in [2], 32%. Moreover, the log Ks was found to be 6.33 in the assay with Calf thymus DNA [7] and 5.69 in [14]. Further, the values for the Ratio (in the assay with Calf thymus DNA [13]; in assay [15]) were 0.09 and 0.58, respectively. Besides, the ΔTm in the assay with Calf thymus DNA [9] turned out to be 13.8 °C; with Calf thymus DNA [3], 14.5 °C; in the assay on Calf thymus DNA [10] it was 14.8 °C; in assay [11], 0.9 °C; in assay [4] it was 0.5 °C; in assay [12] it was 0.8 °C. Moreover, the values for the IC50 in the assay with Trypanosoma brucei and in the assay with L6 were 5.1 µM and 104 µM, respectively. Also, it took 8.2 µM to reach the 90% level in the assay on Trypanosoma brucei (IC90). Further, the outcome in the assay with Calf thymus DNA [6] was Active.
In the case of `Cl.Cl.c1cc2[nH]c(-c3ccc(Cn4cc(CCCc5cn(Cc6ccc(-c7nc8cc(C9=NCCN9)ccc8[nH]7)o6)nn5)nn4)o3)nc2cc1C1=NCCN1`, the values for the Activity (with Calf thymus DNA [1]; in [2]) were 17% and 32%, respectively. Moreover, the log Ks in the assay with Calf thymus DNA [7] turned out to be 7.62; in [14], 6.83. For the same compound, the Ratio in the assay with Calf thymus DNA [13] worked out at 0.05; in [15], 0.42. For the same compound, the ΔTm in the assay on Calf thymus DNA [9] was 13.5 °C; in the assay with Calf thymus DNA [3] it was 13.8 °C; in the assay on Calf thymus DNA [10], 19.1 °C; in assay [11], 1.6 °C; in assay [4], 1.8 °C; in [12], 2.7 °C. Further, the result (in assay [5]; with Calf thymus DNA [6]) was Active. The results for the IC50 with Trypanosoma brucei and in the assay on L6 were 3.9 µM and 216 µM, respectively. Further, the IC90 in the assay with Trypanosoma brucei is 5.4 µM.
With `Fc1ccc2[nH]c(-c3ccc(Cn4cc(CCCc5cn(Cc6ccc(-c7nc8cc(F)ccc8[nH]7)o6)nn5)nn4)o3)nc2c1`, the Activity with Calf thymus DNA [1] amounted to 46%; in assay [2], 31%. The log Ks in the assay with Calf thymus DNA [7] was found to be 6.56; in [14] it was 4.94. The Ratio in the assay with Calf thymus DNA [13] turned out to be 0.15; in assay [15], 0.5. Moreover, the ΔTm in the assay with Calf thymus DNA [9] was 0.8 °C; in the assay with Calf thymus DNA [3], 1.3 °C; in the assay on Calf thymus DNA [10], 2 °C; in assay [11], 0.8 °C; in assay [4], 1.3 °C; in [12], 2 °C. Further, the IC50 with Trypanosoma brucei came out at 4 µM; in the assay on L6, 221 µM. The same compound yielded an IC90 in the assay on Trypanosoma brucei of 8.9 µM. In the assay on Calf thymus DNA [6], the outcome was inactive.
In the case of `Cl.Cl.c1cc2[nH]c(-c3ccc(Cn4cc(COCc5cn(Cc6ccc(-c7nc8cc(C9=NCCN9)ccc8[nH]7)o6)nn5)nn4)o3)nc2cc1C1=NCCN1`, the Activity in the assay with Calf thymus DNA [1] is 28%; in [2], 22%. In addition, the log Ks was found to be 6.23 with Calf thymus DNA [7] and 7.17 in [14]. For the same compound, the Ratio turned out to be 0.89 in the assay with Calf thymus DNA [13] and 0.85 in [15]. The ΔTm in the assay on Calf thymus DNA [9] was determined as 12.4 °C; with Calf thymus DNA [3], 12.7 °C; with Calf thymus DNA [10] it was 12.5 °C; in [11], 3.5 °C; in [4], 4 °C. Besides, the result (in [5]; in the assay with Calf thymus DNA [6]) was Active. The IC50 with Trypanosoma brucei was determined as 3.8 µM; in the assay with L6 it was 122 µM. In the assay with Trypanosoma brucei, this compound gave an IC90 of 6 µM.
For `N=C(N)c1ccc2[nH]c(-c3ccc(Cn4cc(COc5ccc(-c6ccc(OCc7cn(Cc8ccc(-c9nc%10cc(C(=N)N)ccc%10[nH]9)o8)nn7)cc6)cc5)nn4)o3)nc2c1`, the Activity was 8% in the assay on Calf thymus DNA [1] and less than 5% in assay [2]. Further, in [4], the ΔTm turned out to be 0.9 °C. In addition, the result (in assay [5]; in the assay with Calf thymus DNA [6]) was Active. This compound also returned an IC50 in the assay on Trypanosoma brucei of more than 10 µM.
